Data reported in US4172782A, “Recovery of catalyst” (Sumitomo Chemical Company, Limited, priority 1977, dated 1979).

Experiment: Solubility of tetra-n-butylammonium bromide in aqueous sodium hydroxide solutions
Format: physicochemical
Conditions: aqueous NaOH, 20° C.
Description: The organic quaternary ammonium salt is soluble both in water and in the oil layer. Its solubility in an aqueous alkali solution varies with the concentration of the alkali. The solubilities of tetra-n-butylammonium bromide, as an example of organic quaternary ammonium salts, in aqueous sodium hydroxide solutions were measured at 20° C. and the results obtained were as shown in Table 1.

CCCC[N+](CCCC)(CCCC)CCCC.[Br-] [tetra-n-butylammonium bromide]
Solubility of tetra-n-butylammonium bromide (1% by wt.): 27 % by wt. | Solubility of tetra-n-butylammonium bromide (2% by wt.): 11 % by wt. | Solubility of tetra-n-butylammonium bromide (5% by wt.): 2.4 % by wt. | Solubility of tetra-n-butylammonium bromide (10% by wt.): 1.2 % by wt. | Solubility of tetra-n-butylammonium bromide (15% by wt.): 0.07 % by wt.
